Laboratory results from patent US20120211082A1, “PHOTOELECTRIC CONVERSION DEVICE AND SOLAR CELL USING THE SAME” (MITSUBISHI CHEMICAL CORPORATION, priority 2009, published 2012).

Assay: Solubility in THF noted during cyclic voltammetry
Assay type: physicochemical
Settings: cyclic voltammetry conditions
Procedure: Thus, using a mixed solvent of o-dichlorobenzene and acetonitrile (4:1, volume ratio) instead of THF, the cyclic voltammetry was performed.

Row | Molecule | Solubility in THF
1 | c12c3c4c5c1c1c6c7c2c2c8c3c3c9c4c4c%10c5c5c1c1c6c6c%11c7c2c2c7c8c3c3c8c9c4c4c9c%10c5c5c1c1c6c6c%11c2c2c7c3c3c8c4c4c9c5c1c1c6c2c3c41 [C60, fullerene] | sparingly soluble

Assay: Solubility of fullerene compounds in toluene
Assay type: physicochemical
Settings: mixed at 40° C., returned to 25° C.
Procedure: With regard to the solubility of various fullerene compounds, a powder of a fullerene derivative and toluene were mixed at 40° C. The amount of toluene used at this time was a minimum amount at which dissolution was confirmed at 40° C. Thereafter, temperature was returned to 25° C. and no precipitation was confirmed. The concentration of the toluene on this occasion was regarded as the solubility. In the case where precipitation was observed, toluene was further added until dissolution, and the concentration of the toluene at the time when dissolution was finally confirmed was regarded as the solubility.

Row | Molecule | Solubility (% by weight)
2 | 1-(3-methoxycarbonyl)propyl-1-phenyl(6,6)-C60 [PCBM] | 1.5 % by weight
3 | c12c3c4c5c1c1c6c7c2c2c8c3c3c9c4c4c%10c5c5c1c1c6c6c%11c7c2c2c7c8c3c3c8c9c4c4c9c%10c5c5c1c1c6c6c%11c2c2c7c3c3c8c4c4c9c5c1c1c6c2c3c41 [C60, fullerene] | 0.3 % by weight

Assay: Solubility of buffer material in methanol at room temperature
Assay type: physicochemical
Settings: not given

Row | Molecule | Solubility (MeOH, room temperature)/% by weight
4 | Cc1cc(-c2ccccc2)c2ccc3c(-c4ccccc4)cc(C)nc3c2n1 [BCP, 2,9-dimethyl-4,7-diphenyl-1,10-phenanthroline] | 0.1 % by weight
5 | O=P(c1ccccc1)(c1ccccc1)c1ccc2ccccc2c1-c1c(P(=O)(c2ccccc2)c2ccccc2)ccc2ccccc12 [BINAPO] | 4 % by weight
6 | c1ccc(-c2cc(-c3ccc4ccccc4c3)nc3c2ccc2c(-c4ccccc4)cc(-c4ccc5ccccc5c4)nc23)cc1 [NBPhen] | <0.01 % by weight
7 | O=P(c1ccccc1)(c1ccccc1)c1cccc(-c2cc(-c3ccccc3)cc(-c3cccc(P(=O)(c4ccccc4)c4ccccc4)c3)n2)c1 [PO(TPP)PO] | >8 % by weight
8 | O=P(c1ccccc1)(c1ccccc1)c1ccc2c(c1)c1cc(P(=O)(c3ccccc3)c3ccccc3)ccc1n2-c1ccccc1 [POCzPO] | >8 % by weight
9 | O=P(c1ccccc1)(c1ccccc1)c1c(F)c(F)c(-c2c(F)c(F)c(P(=O)(c3ccccc3)c3ccccc3)c(F)c2F)c(F)c1F [POFBPO] | 1 % by weight
10 | O=P(c1ccccc1)(c1ccccc1)c1ccccc1 [POPh3] | >5.0 % by weight
11 | O=P(c1ccccc1)(c1ccc2ccc3cccc4ccc1c2c34)c1ccc2ccc3cccc4ccc1c2c34 [POPy2] | <0.01 % by weight
12 | O=P(c1ccccc1)(c1ccccc1)c1ccc2c(c1)C1(c3ccccc3-c3ccccc31)c1cc(P(=O)(c3ccccc3)c3ccccc3)ccc1-2 [POSFPO] | 0.5 % by weight
13 | c1ccc(-n2c(-c3cc(-c4nc5ccccc5n4-c4ccccc4)cc(-c4nc5ccccc5n4-c4ccccc4)c3)nc3ccccc32)cc1 [TPBi] | <0.01 % by weight
